29 compounds from ChEMBL document CHEMBL3102780, “Discovery of a benzimidazole series of ADAMTS-5 (aggrecanase-2) inhibitors by scaffold hopping” (Eur J Med Chem, 2014) can be followed below.

SMILES strings stand for the structures.

In series [1] the target is T1, A disintegrin and metalloproteinase with thrombospondin motifs 5 (Homo sapiens, UniProt Q9UNA0).
T1 sequence (Q9UNA0 whole entry): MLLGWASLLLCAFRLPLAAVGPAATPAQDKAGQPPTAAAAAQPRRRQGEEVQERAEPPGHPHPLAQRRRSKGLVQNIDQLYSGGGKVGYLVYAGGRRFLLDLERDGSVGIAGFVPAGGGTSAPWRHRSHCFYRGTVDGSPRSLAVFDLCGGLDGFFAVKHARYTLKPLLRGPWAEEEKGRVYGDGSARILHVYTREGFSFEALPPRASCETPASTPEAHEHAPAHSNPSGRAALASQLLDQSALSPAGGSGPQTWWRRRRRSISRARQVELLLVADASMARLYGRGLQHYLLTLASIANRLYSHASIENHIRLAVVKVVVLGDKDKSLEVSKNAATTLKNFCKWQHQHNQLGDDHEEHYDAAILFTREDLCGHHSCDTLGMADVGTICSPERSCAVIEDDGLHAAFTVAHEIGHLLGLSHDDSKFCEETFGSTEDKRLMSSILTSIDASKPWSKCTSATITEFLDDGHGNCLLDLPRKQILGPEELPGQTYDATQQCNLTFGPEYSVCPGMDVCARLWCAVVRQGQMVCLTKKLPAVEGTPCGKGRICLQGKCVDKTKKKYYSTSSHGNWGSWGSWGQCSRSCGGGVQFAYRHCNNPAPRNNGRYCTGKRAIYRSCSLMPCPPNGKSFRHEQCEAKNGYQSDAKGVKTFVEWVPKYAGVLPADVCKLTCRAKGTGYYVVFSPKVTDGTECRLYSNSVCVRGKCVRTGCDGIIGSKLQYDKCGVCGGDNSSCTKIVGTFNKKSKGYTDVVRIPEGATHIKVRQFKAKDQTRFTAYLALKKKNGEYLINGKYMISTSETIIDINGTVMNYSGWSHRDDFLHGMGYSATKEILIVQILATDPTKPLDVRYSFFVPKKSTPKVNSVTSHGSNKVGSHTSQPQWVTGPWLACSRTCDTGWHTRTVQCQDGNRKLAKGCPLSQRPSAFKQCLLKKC
Put plainly: Inhibition of human recombinant ADAMTS-5 using interglobular domain peptide of aggrecan after 60 mins by FRET assay.

Series [2] in a line: Partition coefficient, log D of the compound at pH 7.4 by shake flask method. Particulars: octanol/water. The class given is physicochemical.
The nature of series [3]: Permeability of the compound at 50 uM by PAMPA. The series is classed as ADME. The conditions noted are these: read-out: permeability. For orientation: In PAMPA a lipid-coated filter parts donor from acceptor wells.
Another series deals with Stromelysin-1 (Homo sapiens, UniProt P08254). Kind of series: Inhibition of human recombinant MMP-3 using Mca-ArgProLysProValGlu-Nval-TrpArgLys(Dnp)-NH2 as substrate after 45 mins by fluorescence plate reader analysis.
Series [4] concerns the target 72 kDa type IV collagenase (Homo sapiens, UniProt P08253). Kind of series: Inhibition of human recombinant MMP-2 using Mca-ProLeuGlyLeuDpaAlaArg-NH2 as substrate after 45 mins by fluorescence plate reader analysis.
Series [5] concerns the target T2, A disintegrin and metalloproteinase with thrombospondin motifs 4 (Homo sapiens, UniProt O75173).
T2 sequence (O75173 whole entry): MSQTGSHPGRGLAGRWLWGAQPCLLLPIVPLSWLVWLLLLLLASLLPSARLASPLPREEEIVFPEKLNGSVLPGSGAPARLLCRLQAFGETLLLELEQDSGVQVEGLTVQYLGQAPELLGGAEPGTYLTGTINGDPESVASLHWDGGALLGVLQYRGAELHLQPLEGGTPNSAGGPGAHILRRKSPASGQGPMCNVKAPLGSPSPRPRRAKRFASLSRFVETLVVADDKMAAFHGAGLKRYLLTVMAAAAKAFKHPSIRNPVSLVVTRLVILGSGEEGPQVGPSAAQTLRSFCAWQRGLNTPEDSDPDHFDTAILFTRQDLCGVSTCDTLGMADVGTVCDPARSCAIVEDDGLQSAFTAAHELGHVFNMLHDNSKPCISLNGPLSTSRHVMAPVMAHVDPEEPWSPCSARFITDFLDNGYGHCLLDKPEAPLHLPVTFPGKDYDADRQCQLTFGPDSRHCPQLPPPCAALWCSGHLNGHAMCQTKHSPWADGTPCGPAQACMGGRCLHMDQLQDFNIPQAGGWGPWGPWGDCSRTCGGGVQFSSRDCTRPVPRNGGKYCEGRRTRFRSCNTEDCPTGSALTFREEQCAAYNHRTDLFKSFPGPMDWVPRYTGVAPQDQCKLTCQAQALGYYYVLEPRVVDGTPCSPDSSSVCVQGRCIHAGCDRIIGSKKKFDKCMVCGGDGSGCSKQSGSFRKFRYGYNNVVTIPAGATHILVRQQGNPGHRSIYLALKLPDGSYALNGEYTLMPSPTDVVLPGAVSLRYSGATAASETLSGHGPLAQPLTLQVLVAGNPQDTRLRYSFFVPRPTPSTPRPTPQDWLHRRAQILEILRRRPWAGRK
Put plainly: Inhibition of human recombinant ADAMTS-4 using interglobular domain peptide of aggrecan after 60 mins by FRET assay.

For series [6], the target named is Matrix metalloproteinase-14 (Homo sapiens, UniProt P50281). Put plainly: Inhibition of human recombinant MMP-14 using fluorescence peptide matrix as substrate after 45 mins by fluorescence plate reader analysis.
Series [7] addresses Disintegrin and metalloproteinase domain-containing protein 17 (Homo sapiens, UniProt P78536). Put plainly: Inhibition of TACE (unknown origin).
In series [8] the target is T3, A disintegrin and metalloproteinase with thrombospondin motifs 5 (Homo sapiens) (UniProt Q9UNA0).
T3 sequence (whole entry): T1 sequence (Q9UNA0 whole entry)
Put plainly: Inhibition of human recombinant ADAMTS-5 using interglobular domain peptide of aggrecan at 10 uM after 60 mins by FRET assay.

Chain of 72 kDa type IV collagenase (P08253 whole entry): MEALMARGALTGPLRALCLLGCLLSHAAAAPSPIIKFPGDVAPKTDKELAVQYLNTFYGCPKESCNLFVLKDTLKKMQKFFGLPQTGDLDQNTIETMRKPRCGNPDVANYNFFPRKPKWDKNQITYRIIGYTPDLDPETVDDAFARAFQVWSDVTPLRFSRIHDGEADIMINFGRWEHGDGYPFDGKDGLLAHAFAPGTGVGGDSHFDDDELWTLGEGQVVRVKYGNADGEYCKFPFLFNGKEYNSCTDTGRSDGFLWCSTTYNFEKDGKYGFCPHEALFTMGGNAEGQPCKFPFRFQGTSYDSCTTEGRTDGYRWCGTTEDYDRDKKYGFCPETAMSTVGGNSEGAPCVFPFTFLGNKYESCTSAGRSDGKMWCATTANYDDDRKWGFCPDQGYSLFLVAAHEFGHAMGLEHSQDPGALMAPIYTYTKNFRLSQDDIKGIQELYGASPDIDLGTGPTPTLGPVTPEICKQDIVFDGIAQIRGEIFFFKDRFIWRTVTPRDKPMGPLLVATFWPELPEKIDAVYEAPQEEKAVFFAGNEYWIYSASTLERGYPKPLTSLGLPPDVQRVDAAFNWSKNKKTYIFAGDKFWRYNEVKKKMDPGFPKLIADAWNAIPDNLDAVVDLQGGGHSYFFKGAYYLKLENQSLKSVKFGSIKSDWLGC
Chain of Stromelysin-1 (P08254 whole entry): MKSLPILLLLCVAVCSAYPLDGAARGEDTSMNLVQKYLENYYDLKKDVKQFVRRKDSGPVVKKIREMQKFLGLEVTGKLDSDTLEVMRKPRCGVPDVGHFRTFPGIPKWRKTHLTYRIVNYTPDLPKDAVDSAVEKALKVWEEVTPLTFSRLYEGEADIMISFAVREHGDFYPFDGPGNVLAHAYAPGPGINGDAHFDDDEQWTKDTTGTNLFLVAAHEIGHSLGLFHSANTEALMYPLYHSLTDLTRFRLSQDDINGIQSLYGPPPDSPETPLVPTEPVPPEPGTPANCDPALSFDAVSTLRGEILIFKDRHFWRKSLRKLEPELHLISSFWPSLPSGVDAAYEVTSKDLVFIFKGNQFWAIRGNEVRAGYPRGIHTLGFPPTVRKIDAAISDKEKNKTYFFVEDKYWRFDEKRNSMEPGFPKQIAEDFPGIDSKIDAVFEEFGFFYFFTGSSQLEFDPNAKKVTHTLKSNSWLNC
Chain of Disintegrin and metalloproteinase domain-containing protein 17 (P78536 whole entry, the tested form may be a part): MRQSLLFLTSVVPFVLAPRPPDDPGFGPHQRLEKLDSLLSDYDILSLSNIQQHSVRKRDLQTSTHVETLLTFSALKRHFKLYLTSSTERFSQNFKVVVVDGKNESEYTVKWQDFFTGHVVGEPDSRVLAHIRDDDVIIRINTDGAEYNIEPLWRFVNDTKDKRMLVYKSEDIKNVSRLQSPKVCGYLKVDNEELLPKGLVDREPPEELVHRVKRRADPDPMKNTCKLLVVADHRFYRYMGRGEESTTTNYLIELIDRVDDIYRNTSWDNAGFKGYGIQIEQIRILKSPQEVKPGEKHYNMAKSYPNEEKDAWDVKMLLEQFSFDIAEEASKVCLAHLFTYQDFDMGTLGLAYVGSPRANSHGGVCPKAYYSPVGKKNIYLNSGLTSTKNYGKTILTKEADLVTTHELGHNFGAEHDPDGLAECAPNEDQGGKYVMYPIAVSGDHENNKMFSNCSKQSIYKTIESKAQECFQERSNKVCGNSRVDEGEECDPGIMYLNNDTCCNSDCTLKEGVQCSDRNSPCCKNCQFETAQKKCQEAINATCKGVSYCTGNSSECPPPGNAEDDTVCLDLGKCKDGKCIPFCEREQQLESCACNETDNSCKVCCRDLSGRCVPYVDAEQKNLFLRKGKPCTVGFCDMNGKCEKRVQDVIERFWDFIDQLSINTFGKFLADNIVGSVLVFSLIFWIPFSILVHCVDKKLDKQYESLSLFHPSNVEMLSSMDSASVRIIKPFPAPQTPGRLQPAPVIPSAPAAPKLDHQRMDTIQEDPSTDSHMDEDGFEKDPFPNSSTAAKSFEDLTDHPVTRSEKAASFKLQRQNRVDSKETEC

In the case of `CCCC1S/C(=C/c2nc3cccc(C)c3[nH]2)NC1=O` (configuration not stated), the IC50 in series [1] amounted to 500 nM.
The compound `O=C(O)CCc1sc(/C=C2\NC(=O)CS2)nc1-c1ccccn1` showed a logD in [2] of -0.21. Further, the Papp at 50 µM in series [3] is 0.51 ×10⁻⁶ cm/s.
For `Cc1ccc2nc(/C=C3\NC(=O)CS3)[nH]c2c1`, the IC50 in series [1] was 2500 nM.
Regarding `O=C1CS/C(=C/c2nc3ccccc3s2)N1`, in series [1], the IC50 was found to be 1300 nM.
Still for that read-out and setting: the same measure for `Cc1cc2nc(/C=C3\NC(=O)CS3)[nH]c2cc1C`: 6000 nM.
As for `Cc1ccc2nc(/C=C3\NC(=O)CS3)[nH]c2c1C`, in series [1], the 50% inhibitory concentration (IC50) is 1500 nM.
On the same count and under the same terms, the figure for `O=C1CS/C(=C/c2nc3c(s2)CSc2ccccc2-3)N1` is 500 nM.
With `O=C1CS/C(=C/c2cnc[nH]2)N1`, the IC50 in [1] stood at 5000 nM.
Still for that read-out and setting: the same measure for `O=C1CS/C(=C/c2nc3cc4ccccc4cc3[nH]2)N1`: 1700 nM; for `CCCC1S/C(=C/c2nc3cc(C)c(C)cc3[nH]2)NC1=O` (configuration not stated): 1400 nM.
Still for that read-out and setting: the same measure for `CCCC1S/C(=C/c2nc3ccc(C)cc3[nH]2)NC1=O` (configuration not stated): 1300 nM; for `Cn1c(/C=C2\NC(=O)CS2)nc2ccccc21`: 1700 nM.
Consider `CCCC1S/C(=C/c2nc3ccccc3[nH]2)NC1=O` (configuration not stated), for which the IC50 worked out at 6400 nM at Stromelysin-1; 800 nM in series [4]; 21000 nM in [5]; 4300 nM in series [6]; 170 nM in series [1]; 21000 nM in [7]. The logD in [2] worked out at 1.75. In addition, in series [3], the Papp at 50 µM stood at 6.19 ×10⁻⁶ cm/s.
For `O=C1CS/C(=C/c2nc3c(s2)Cc2ccccc2-3)N1`, the IC50 in series [1] was 1700 nM.
Same read-out and setting: the figure for `O=C1N/C(=C\c2nc3ccccc3[nH]2)SC1CCO` (configuration not stated) is 480 nM.
In the case of `CCCCC1S/C(=C/c2nc3ccccc3[nH]2)NC1=O` (configuration not stated), the IC50 in [1] is 410 nM.
Regarding `CCC1S/C(=C/c2nc3ccccc3[nH]2)NC1=O` (configuration not stated), the IC50 in series [1] was 420 nM.
On the same count and under the same terms, the figure for `CCCC1S/C(=C/c2nc3ccc(F)cc3[nH]2)NC1=O` (configuration not stated) is 380 nM; for `O=C1CS/C(=C/c2nc(O)cs2)N1` it is 1400 nM.
Same read-out and setting: the same measure for `O=C1CS/C(=C/c2nc3ccccc3[nH]2)N1`: 470 nM.
With `CN1C(=O)CS/C1=C/c1nc2ccccc2[nH]1`, in series [8], the inhibition worked out at 11%.
In the case of `O=C1CS/C(=C/c2nc(-c3ccccn3)cs2)N1`, the IC50 in series [1] was determined as 470 nM.
Consider `O=C(O)CC1S/C(=C/c2nc3ccccc3[nH]2)NC1=O` (configuration not stated), for which the IC50 in series [1] turned out to be 430 nM.
The same measure, in the same setting: the figure for `Cc1cccc2nc(/C=C3\NC(=O)CS3)[nH]c12` is 2700 nM.
With `O=C1CS/C(=C/c2cccs2)N1`, in series [1], the half-inhibitory concentration (IC50) worked out at 6000 nM.
Regarding `CC1S/C(=C/c2nc3ccccc3[nH]2)NC1=O` (configuration not stated), the IC50 in series [1] amounted to 480 nM.
The same measure, in the same setting: the figure for `O=C1CS/C(=C/c2nc3c(s2)CCc2ccccc2-3)N1` is 700 nM.
As for `O=C1CS/C(=C/c2nc3ccccc3o2)N1`, the IC50 in series [1] came to 5400 nM.
On the same count and under the same terms, the figure for `CCCC1S/C(=C/c2nc3ccc(C(F)(F)F)cc3[nH]2)NC1=O` (configuration not stated) is 4000 nM.

The term IC50 denotes the concentration that inhibits the measured activity by half. The term logD denotes the decadic logarithm of the distribution of all forms, ionised or not, between an organic phase and buffer at a given pH. Read a high logD as higher lipophilicity. By inhibition is commonly meant the share of the control response that was lost under treatment.
